The results in this text go back to paper PMC6423280, “New Therapeutic Approach for Targeting Hippo Signalling Pathway” (Scientific Reports, 2019).

Peptide text beside a SMILES is read from it.

Data set [1] in a line: Peptide integrity in human serum (resistance to proteases degradation). In kind it is in vitro ADME. To be noted: human serum 250 μl, 37 °C, different times, upon 6 h; MALDI-TOF MS; triplicate. Here is the method: Figure 7 Stability of the new generated peptides in human serum. Peptides were incubated at 37 °C in human serum for different periods of time and their integrity (percentage of intact peptide) was analyzed by mass spectrometry (MS). Every measurement was performed in triplicate. Standard deviation is shown.
Peptides were incubated at 37 °C in 250 μl of human serum for several times. Samples were collected and peptide degradation stopped by freezing. Peptides were extracted from samples using the Proteo Miner Protein Enrichment System (Bio-Rad, California, USA). Percentage of intact peptide was estimated by mass spectrometry (MS) using MALDI-TOFF (Brucker Autoflex II, Massachusetts, USA) following their protocols. Measurements were performed in triplicates. MS data were analyzed using appropriated software (Clinprot tools, FLEx analysis, Brucker, Massachusetts, USA) as previously described[8],[9].

Details of data set [2]: species or system C3H/S-strain mice. To be noted: mouse, in vivo. Here is the method:
Figure 8 NLS18-TEAD has anti-tumoral effect on breast cancer xenograft models. (a) C3H/S-strain mice subcutaneously inoculated with 4 × 10^5 TN60-UNLP cells were intraperitoneally treated with 5 mg/kg of NLS18-TEAD or NLS23-TEAD 5 days per week for 4 weeks. Control mice received NaCl. Tumor growth was monitored each other day. The average tumor volume of each group (8 mice per group) is shown (p < 0.018). (b) The weight of the animals and the organs upon 30 days of treatment with the peptides NLS18-TEAD or NLS23-TEAD is shown. Control non-treated mice are also shown. p and t statistic values are shown. […]

With `CC(C)C[C@H](NC(=O)[C@H](CCCCN)NC(=O)[C@H](CCCCN)NC(=O)[C@H](CCCCN)NC(=O)[C@H](CCCCN)NC(=O)[C@@H]1CCCN1C(=O)[C@H](Cc1c[nH]c2ccccc12)NC(=O)[C@H](CCCCN)NC(=O)[C@H](CCCCN)NC(=O)[C@H](Cc1c[nH]c2ccccc12)NC(=O)[C@H](CCCCN)NC(=O)[C@H](CCCCN)NC(=O)[C@H](CCCCN)NC(=O)[C@H](CCCCN)NC(=O)[C@H](CCCCN)NC(=O)[C@H](CCCNC(=N)N)NC(=O)[C@H](CCCCN)NC(=O)[C@@H](N)CCCNC(=N)N)C(=O)N[C@@H](CC(=O)O)C(=O)N[C@@H](CCCNC(=N)N)C(=O)N[C@@H](CC(C)C)C(=O)N[C@@H](CCC(N)=O)C(=O)N[C@@H](CC(C)C)C(=O)N[C@H](C(=O)N[C@@H](CCC(=O)O)C(=O)N[C@@H](Cc1ccccc1)C(=O)N[C@@H](CO)C(=O)N[C@@H](C)C(=O)N[C@@H](Cc1ccccc1)C(=O)N[C@H](C(=O)N[C@@H](CCC(=O)O)C(=O)N1CCC[C@H]1C(=O)N1CCC[C@H]1C(=O)N[C@@H](CC(=O)O)C(=O)N[C@@H](C)C(=O)N[C@H](C(=O)N[C@@H](CC(=O)O)C(=O)O)C(C)C)C(C)C)C(C)C` [NLS18-TEAD] (H-RKRKKKKKWKKWPKKKKLDRLQLVEFSAFVEPPDAVD-OH), the “Stability to proteases degradation in human serum (percentage of intact peptide)” value in data set [1] is “constant stability”. Also, the “Clinical symptoms in the injected animals compared to control non-treated animals” value in data set [2] is “did not detected clinical symptoms”.
With `CC(C)C[C@H](NC(=O)[C@H](CCCCN)NC(=O)[C@H](CCCCN)NC(=O)[C@H](CCCCN)NC(=O)[C@H](CCCCN)NC(=O)[C@@H]1CCCN1C(=O)[C@H](CCCCN)NC(=O)[C@H](CCCCN)NC(=O)[C@H](CCCCN)NC(=O)[C@H](Cc1c[nH]c2ccccc12)NC(=O)[C@H](CCCCN)NC(=O)[C@H](CCCCN)NC(=O)[C@H](Cc1c[nH]c2ccccc12)NC(=O)[C@H](CCCCN)NC(=O)[C@H](CCCCN)NC(=O)[C@H](CCCCN)NC(=O)[C@H](CCCCN)NC(=O)[C@H](CCCCN)NC(=O)[C@H](CCCNC(=N)N)NC(=O)[C@H](CCCCN)NC(=O)[C@@H](N)CCCNC(=N)N)C(=O)N[C@@H](CC(=O)O)C(=O)N[C@@H](CCCNC(=N)N)C(=O)N[C@@H](CC(C)C)C(=O)N[C@@H](CCC(N)=O)C(=O)N[C@@H](CC(C)C)C(=O)N[C@H](C(=O)N[C@@H](CCC(=O)O)C(=O)N[C@@H](Cc1ccccc1)C(=O)N[C@@H](CO)C(=O)N[C@@H](C)C(=O)N[C@@H](Cc1ccccc1)C(=O)N[C@H](C(=O)N[C@@H](CCC(=O)O)C(=O)N1CCC[C@H]1C(=O)N1CCC[C@H]1C(=O)N[C@@H](CC(=O)O)C(=O)N[C@@H](C)C(=O)N[C@H](C(=O)N[C@@H](CC(=O)O)C(=O)O)C(C)C)C(C)C)C(C)C` [NLS23-TEAD] (H-RKRKKKKKWKKWKKKPKKKKLDRLQLVEFSAFVEPPDAVD-OH), the “Clinical symptoms in the injected animals compared to control non-treated animals” value in data set [2] is reported as “did not detected clinical symptoms”.
